In ChEMBL document CHEMBL1275492, “In vitro activity of ceftobiprole against pathogens from two phase 3 clinical trials of complicated skin and skin structure infections” (2008):
In brackets after ≈: the same amount, converted by molar mass.

What was measured:
Assay type in all cases: functional
Salmonella = assay: Antibacterial activity against Salmonella spp. obtained from complicated skin and skin structure infections by agar dilution method
Acinetobacter baumannii = assay: Antibacterial activity against Acinetobacter baumannii obtained from complicated skin and skin structure infections by agar dilution method
Pseudomonas aeruginosa = assay: Antibacterial activity against Pseudomonas aeruginosa obtained from complicated skin and skin structure infections by agar dilution method
Enterobacter cloacae = assay: Antibacterial activity against Enterobacter cloacae obtained from complicated skin and skin structure infections by agar dilution method
Proteus penneri = assay: Antibacterial activity against Proteus penneri obtained from complicated skin and skin structure infections by agar dilution method
Klebsiella pneumoniae = assay: Antibacterial activity against Klebsiella pneumoniae obtained from complicated skin and skin structure infections by agar dilution method
Proteus mirabilis = assay: Antibacterial activity against Proteus mirabilis obtained from complicated skin and skin structure infections by agar dilution method
Citrobacter freundii = assay: Antibacterial activity against Citrobacter freundii obtained from complicated skin and skin structure infections by agar dilution method
Escherichia coli = assay: Antibacterial activity against Escherichia coli obtained from complicated skin and skin structure infections by agar dilution method
Citrobacter braakii = assay: Antibacterial activity against Citrobacter braakii obtained from complicated skin and skin structure infections by agar dilution method
Enterobacter amnigenus = assay: Antibacterial activity against Enterobacter amnigenus obtained from complicated skin and skin structure infections by agar dilution method; conditions: Lelliottia amnigena
Providencia stuartii = assay: Antibacterial activity against Providencia stuartii obtained from complicated skin and skin structure infections by agar dilution method
Pseudomonas fluorescens = assay: Antibacterial activity against Pseudomonas fluorescens obtained from complicated skin and skin structure infections by agar dilution method
Klebsiella aerogenes = assay: Antibacterial activity against Enterobacter aerogenes obtained from complicated skin and skin structure infections by agar dilution method
Morganella morganii = assay: Antibacterial activity against Morganella morganii obtained from complicated skin and skin structure infections by agar dilution method
[1] = system: Stenotrophomonas maltophilia; assay: Antibacterial activity against Stenotrophomonas maltophilia obtained from complicated skin and skin structure infections by agar dilution method
Serratia marcescens = assay: Antibacterial activity against Serratia marcescens obtained from complicated skin and skin structure infections by agar dilution method
Klebsiella oxytoca = assay: Antibacterial activity against Klebsiella oxytoca obtained from complicated skin and skin structure infections by agar dilution method
Proteus vulgaris = assay: Antibacterial activity against Proteus vulgaris obtained from complicated skin and skin structure infections by agar dilution method
Staphylococcus aureus [2] = assay: Antibacterial activity against methicillin resistant Staphylococcus aureus obtained from complicated skin and skin structure infections by agar dilution method
[3] = system: Staphylococcus saprophyticus; assay: Antibacterial activity against coagulase-negative Staphylococcus saprophyticus obtained from complicated skin and skin structure infections by agar dilution method
Micrococcus = assay: Antibacterial activity against Micrococcus spp. obtained from complicated skin and skin structure infections by agar dilution method
Staphylococcus capitis = assay: Antibacterial activity against coagulase-negative Staphylococcus capitis obtained from complicated skin and skin structure infections by agar dilution method
Bacillus = assay: Antibacterial activity against Bacillus spp. obtained from complicated skin and skin structure infections by agar dilution method
Staphylococcus warneri = assay: Antibacterial activity against coagulase-negative Staphylococcus warneri obtained from complicated skin and skin structure infections by agar dilution method
Lactococcus lactis = assay: Antibacterial activity against Lactococcus lactis obtained from complicated skin and skin structure infections by agar dilution method
Streptococcus mitis = assay: Antibacterial activity against Streptococcus mitis obtained from complicated skin and skin structure infections by agar dilution method
Staphylococcus cohnii = assay: Antibacterial activity against coagulase-negative Staphylococcus cohnii obtained from complicated skin and skin structure infections by agar dilution method
Gemella morbillorum = assay: Antibacterial activity against Gemella morbillorum obtained from complicated skin and skin structure infections […]
Mammaliicoccus sciuri = assay: Antibacterial activity against coagulase-negative Staphylococcus sciuri obtained from complicated skin and skin structure infections by agar dilution method
[4] = system: Staphylococcus intermedius; assay: Antibacterial activity against Staphylococcus intermedius obtained from complicated skin and skin structure infections by agar dilution method
[5] = system: Staphylococcus haemolyticus; assay: Antibacterial activity against coagulase-negative Staphylococcus haemolyticus obtained from complicated skin and skin structure infections by agar dilution method
Staphylococcus = assay: Antibacterial activity against methicillin-susceptible, coagulase-negative Staphylococcus obtained from complicated skin and skin structure infections by agar dilution method
Staphylococcus hominis = assay: Antibacterial activity against coagulase-negative Staphylococcus hominis obtained from complicated skin and skin structure infections by agar dilution method
[6] = system: Staphylococcus lugdunensis; assay: Antibacterial activity against methicillin-resistant, oxacillin-susceptible, coagulase-negative, mecA-positive Staphylococcus lugdunensis obtained from complicated skin and skin structure infections by agar dilution method
Staphylococcus aureus [7] = assay: Antibacterial activity against Staphylococcus aureus obtained from complicated skin and skin structure infections by agar dilution method
[8] = system: Streptococcus constellatus; assay: Antibacterial activity against Streptococcus constellatus obtained from complicated skin and skin structure infections by agar dilution method
Aerococcus viridans = assay: Antibacterial activity against Aerococcus viridans obtained from complicated skin and skin structure infections by agar dilution method
Staphylococcus aureus [9] = assay: Antibacterial activity against methicillin susceptible Staphylococcus aureus obtained from complicated skin and skin structure infections by agar dilution method
[10] = system: Staphylococcus lugdunensis; assay: Antibacterial activity against coagulase-negative Staphylococcus lugdunensis obtained from complicated skin and skin structure infections by agar dilution method
[11] = system: Staphylococcus epidermidis; assay: Antibacterial activity against coagulase-negative Staphylococcus epidermidis obtained from complicated skin and skin structure infections by agar dilution method
Gemella = assay: Antibacterial activity against Gemella spp. obtained from complicated skin and skin structure infections by agar dilution method

Structure (SMILES): CO/N=C(\C(=O)N[C@@H]1C(=O)N2C(C(=O)O)=C(CSc3nc(=O)c(O)nn3C)CS[C@H]12)c1csc(N)n1 [CEFTRIAXONE]
- MIC50 (Salmonella): 0.06 µg/mL (≈ 0.108 µM)
- MIC90 (Salmonella): 64 µg/mL (≈ 115 µM)
- MIC50 (Acinetobacter baumannii): > 32 µg/mL
- MIC90 (Acinetobacter baumannii): > 128 µg/mL
- MIC50 (Pseudomonas aeruginosa): 64 µg/mL (≈ 115 µM)
- MIC90 (Pseudomonas aeruginosa): > 128 µg/mL
- MIC50 (Enterobacter cloacae): ≤ 0.25 µg/mL
- MIC90 (Enterobacter cloacae): 64 µg/mL (≈ 115 µM)
- MIC50 (Proteus penneri): 0.06 µg/mL (≈ 0.108 µM)
- MIC90 (Proteus penneri): 64 µg/mL (≈ 115 µM)
- MIC50 (Klebsiella pneumoniae): 0.12 µg/mL (≈ 0.216 µM)
- MIC90 (Klebsiella pneumoniae): 64 µg/mL (≈ 115 µM)
- MIC50 (Proteus mirabilis): ≤ 0.015 µg/mL
- MIC90 (Proteus mirabilis): 4 µg/mL (≈ 7.21 µM)
- MIC50 (Citrobacter freundii): 0.06 µg/mL (≈ 0.108 µM)
- MIC90 (Citrobacter freundii): 64 µg/mL (≈ 115 µM)
- MIC50 (Escherichia coli): 0.06 µg/mL (≈ 0.108 µM)
- MIC90 (Escherichia coli): 0.25 µg/mL (≈ 0.451 µM)
- MIC50 (Citrobacter braakii): 0.06 µg/mL (≈ 0.108 µM)
- MIC90 (Citrobacter braakii): 64 µg/mL (≈ 115 µM)
- MIC50 (Enterobacter amnigenus): 0.06 µg/mL (≈ 0.108 µM)
- MIC90 (Enterobacter amnigenus): 64 µg/mL (≈ 115 µM)
- MIC50 (Providencia stuartii): 0.06 µg/mL (≈ 0.108 µM)
- MIC90 (Providencia stuartii): 64 µg/mL (≈ 115 µM)
- MIC50 (Pseudomonas fluorescens): > 32 µg/mL
- MIC90 (Pseudomonas fluorescens): > 128 µg/mL
- MIC50 (Klebsiella aerogenes): 0.06 µg/mL (≈ 0.108 µM)
- MIC90 (Klebsiella aerogenes): 64 µg/mL (≈ 115 µM)
- MIC50 (Morganella morganii): 0.03 µg/mL (≈ 0.0541 µM)
- MIC90 (Morganella morganii): > 128 µg/mL
- MIC50 [1]: > 32 µg/mL
- MIC90 [1]: > 128 µg/mL
- MIC50 (Serratia marcescens): 0.06 µg/mL (≈ 0.108 µM)
- MIC90 (Serratia marcescens): 64 µg/mL (≈ 115 µM)
- MIC50 (Klebsiella oxytoca): 0.06 µg/mL (≈ 0.108 µM)
- MIC90 (Klebsiella oxytoca): 64 µg/mL (≈ 115 µM)
- MIC50 (Proteus vulgaris): 0.06 µg/mL (≈ 0.108 µM)
- MIC90 (Proteus vulgaris): 64 µg/mL (≈ 115 µM)

Structure (SMILES): Cc1onc(-c2ccccc2)c1C(=O)N[C@@H]1C(=O)N2[C@@H]1SC(C)(C)[C@@H]2C(=O)O [OXACILLIN]
- MIC50 (Staphylococcus aureus [2]): 16 µg/mL (≈ 39.9 µM)
- MIC90 (Staphylococcus aureus [2]): > 32 µg/mL
- MIC50 [3]: 0.5 µg/mL (≈ 1.25 µM)
- MIC90 [3]: > 8 µg/mL
- MIC50 (Micrococcus): 0.25 µg/mL (≈ 0.623 µM)
- MIC90 (Micrococcus): > 8 µg/mL
- MIC50 (Staphylococcus capitis): 0.5 µg/mL (≈ 1.25 µM)
- MIC90 (Staphylococcus capitis): > 8 µg/mL
- MIC50 (Bacillus): 0.25 µg/mL (≈ 0.623 µM)
- MIC90 (Bacillus): > 8 µg/mL
- MIC50 (Staphylococcus warneri): 0.5 µg/mL (≈ 1.25 µM)
- MIC90 (Staphylococcus warneri): > 8 µg/mL
- MIC50 (Lactococcus lactis): 0.25 µg/mL (≈ 0.623 µM)
- MIC90 (Lactococcus lactis): > 8 µg/mL
- MIC (Streptococcus mitis): 0.25 µg/mL (≈ 0.623 µM)
- MIC50 (Streptococcus mitis): 0.25 µg/mL (≈ 0.623 µM)
- MIC90 (Streptococcus mitis): 1 µg/mL (≈ 2.49 µM)
- MIC50 (Staphylococcus cohnii): 0.5 µg/mL (≈ 1.25 µM)
- MIC90 (Staphylococcus cohnii): > 8 µg/mL
- MIC50 (Gemella morbillorum): 0.25 µg/mL (≈ 0.623 µM)
- MIC90 (Gemella morbillorum): > 8 µg/mL
- MIC50 (Mammaliicoccus sciuri): 0.5 µg/mL (≈ 1.25 µM)
- MIC90 (Mammaliicoccus sciuri): > 8 µg/mL
- MIC [4]: 0.25 µg/mL (≈ 0.623 µM)
- MIC50 [4]: 0.25 µg/mL (≈ 0.623 µM)
- MIC90 [4]: 1 µg/mL (≈ 2.49 µM)
- MIC50 [5]: 0.5 µg/mL (≈ 1.25 µM)
- MIC90 [5]: > 8 µg/mL
- MIC50 (Staphylococcus): 0.12 µg/mL (≈ 0.299 µM)
- MIC90 (Staphylococcus): 0.25 µg/mL (≈ 0.623 µM)
- MIC50 (Staphylococcus hominis): 0.5 µg/mL (≈ 1.25 µM)
- MIC90 (Staphylococcus hominis): > 8 µg/mL
- MIC50 [6]: 4 µg/mL (≈ 9.96 µM)
- MIC90 [6]: 32 µg/mL (≈ 79.7 µM)
- MIC50 (Staphylococcus aureus [7]): 0.5 µg/mL (≈ 1.25 µM)
- MIC90 (Staphylococcus aureus [7]): 32 µg/mL (≈ 79.7 µM)
- MIC50 [8]: 0.12 µg/mL (≈ 0.299 µM)
- MIC90 [8]: 0.25 µg/mL (≈ 0.623 µM)
- MIC50 (Aerococcus viridans): 0.25 µg/mL (≈ 0.623 µM)
- MIC90 (Aerococcus viridans): > 8 µg/mL
- MIC50 (Staphylococcus aureus [9]): 0.25 µg/mL (≈ 0.623 µM)
- MIC90 (Staphylococcus aureus [9]): 0.5 µg/mL (≈ 1.25 µM)
- MIC50 [10]: 0.5 µg/mL (≈ 1.25 µM)
- MIC90 [10]: > 8 µg/mL
- MIC50 [11]: 0.5 µg/mL (≈ 1.25 µM)
- MIC90 [11]: > 8 µg/mL
- MIC50 (Gemella): 0.25 µg/mL (≈ 0.623 µM)
- MIC90 (Gemella): > 8 µg/mL
